Measurements as given in patent US20220324835A1 (Nurix Therapeutics, Inc., priority 2018, published 2022).

Columns and labels:
Cbl-b [1] = target: T1, Cbl-b (Homo sapiens, UniProt Q13191); assay: Cbl-b activity assay (Cbl-b inhibition assay), TR-FRET of Cbl-b interaction with UbcH5B-Ub; assay type: biochemical
In short: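 UbcH5B (C85K) conjugated to N-terminally Bodipy-Fluorescein-labeled ubiquitin served as the fluorescent partner. After compound preincubation, Src kinase (60 nM) with 1 mM ATP and 5 mM MgCl2 (final) was added for 1.5 h, followed by a further 1 h incubation. Some values were obtained with 50 mM NaCl and 30 nM Src.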

T-cell [2] = assay: IL-2 secretion from T-cells co-stimulated with anti-CD3 and anti-CD28 antibody (Biological Example 2); assay type: cell-based, human; conditions: Homo sapiens, T-cell, fold change over baseline, primary human total T-cells, read-out: IL-2 secretion Anti-CD3/Anti-CD28 stimulation; for fold induction at 0.3 µM: 0.3 μM Cbl-b inhibitor; for fold induction at 1 µM: 1 μM Cbl-b inhibitor; for fold induction at 4 µM: 4 μM Cbl-b inhibitor
In short: (§1)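 T-cells were stimulated with anti-CD3 antibody alone or with anti-CD28 antibody, in the presence or absence of Cbl-b inhibitor. IL-2 secretion or CD25 surface staining was measured, and values expressed as fold over the uninhibited baseline […].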

Cbl-b (residues 36-427) = Cbl-b (residues 36-427) (Homo sapiens, UniProt Q13191); assay: Cbl-b binding assay (SPR, Biacore T200); conditions: 20° C., 1:1 binding model
Cbl-b (residues 36-427), sequence (Q13191 36-427): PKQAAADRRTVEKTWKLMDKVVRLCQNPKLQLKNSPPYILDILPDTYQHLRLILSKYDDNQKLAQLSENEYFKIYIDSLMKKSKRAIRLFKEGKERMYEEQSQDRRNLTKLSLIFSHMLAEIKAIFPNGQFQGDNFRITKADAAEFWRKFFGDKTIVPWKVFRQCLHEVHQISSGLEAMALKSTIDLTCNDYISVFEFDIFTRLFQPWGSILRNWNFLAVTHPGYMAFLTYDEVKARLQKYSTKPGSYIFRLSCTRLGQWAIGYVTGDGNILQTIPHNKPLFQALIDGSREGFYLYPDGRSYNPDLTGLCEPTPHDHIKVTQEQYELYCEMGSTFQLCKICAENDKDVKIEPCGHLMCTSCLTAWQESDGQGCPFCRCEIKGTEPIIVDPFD
In short: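 Steps: capture protein on NeutrAvidin surface; inject compound dilutions (8 or 10 points from 100 or 50 μM) 50 s; allow 90-180 s dissociation; regenerate 20 s with 0.3 M NaCl. Runs at 20° C in HEPES pH 7.5/100 mM NaCl/2% DMSO; 1:1 fitting.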

T-cell [3] = assay: CD25 cell surface staining on T-cells co-stimulated with anti-CD3 and anti-CD28 antibody (Biological Example 2); assay type: cell-based, human; conditions: Homo sapiens, T-cell, fold change over baseline, primary human total T-cells, read-out: CD25 staining Anti-CD3/Anti-CD28 stimulation; for fold induction at 0.3 µM: 0.3 μM Cbl-b inhibitor; for fold induction at 1 µM: 1 μM Cbl-b inhibitor; for fold induction at 4 µM: 4 μM Cbl-b inhibitor
In short: as §1

Cbl-b [4] = target: T1, Cbl-b; assay: Cbl-b inhibition assay (Cbl-b activity assay, FRET, Biological Example 1; 100 mM NaCl, 60 nM Src kinase); assay type: biochemical; conditions: upper bound stated in text lists; read-out: IC50 values in the Cbl-b inhibition assay of Biological Example 1
In short: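 Binding-based Cbl-b activity assay. Src-phosphorylated, N-terminally biotin-Avi-tagged Cbl-b recruits labelled UbcH5B-Ub, and proximity to streptavidin-terbium yields FRET.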

[5] = assay buffer with 100 mM NaCl, 60 nM Src kinase, read-out: Cbl-b activity IC50

T1 sequence (Q13191 36-427): as above

Structure (SMILES) | IC50 (Cbl-b [1]; [5]) | fold induction at 0.3 µM (T-cell [2]) | fold induction at 1 µM (T-cell [2]) | fold induction at 4 µM (T-cell [2]) | Kd (Cbl-b (residues 36-427)) | fold induction at 0.3 µM (T-cell [3]) | fold induction at 1 µM (T-cell [3]) | fold induction at 4 µM (T-cell [3]) | IC50 (Cbl-b [4]) | IC50 (Cbl-b [1]; * assay buffer containing 50 mM NaCl instead of 100 mM NaCl and 30 nM Src kinase instead of 60 nM, read-out: Cbl-b activity IC50 (μM)*)
C[C@H](Sc1nncn1C)c1cccc(NC(=O)c2ccnc(C(F)(F)F)n2)c1 [Compound 75, N-[3-[(1S)-1-[(4-methyl-1,2,4-triazol-3-yl)sulfanyl]ethyl]phenyl]-2-(trifluoromethyl)pyrimidine-4-carboxamide] | 0.301 to 1 µM | 1.01 to 2.5 | 1.01 to 2.5 | 1.01 to 2.5 | 301 to 1000 nM | 1.01 to 1.3 | 1.01 to 1.3 | 1.01 to 1.3 | ≤ 500 nM | –
C[C@H](Sc1nncn1C)c1cccc(NC(=O)c2cncc(C(F)(F)F)n2)c1 [Compound 77, N-[3-[(1S)-1-[(4-methyl-1,2,4-triazol-3-yl)sulfanyl]ethyl]phenyl]-6-(trifluoromethyl)pyrazine-2-carboxamide] | 0.301 to 1 µM | < 1 | 1.01 to 2.5 | 1.01 to 2.5 | 1000 to 3000 nM | < 1 | 1.01 to 1.3 | 1.01 to 1.3 | ≤ 500 nM | –
C[C@H](Sc1nncn1C)c1cccc(NC(=O)c2cc3c(Cl)cccc3[nH]2)c1 [Compound 78, 4-chloro-A-[3-[(LS)-1-[(4-methyl-1,2,4-triazol-3-yl)sulfanyl]ethyl]phenyl]-1H-indole-2-carboxamide] | 0.1 to 0.3 µM | 1.01 to 2.5 | 1.01 to 2.5 | 2.51 to 5 | 100 to 300 nM | < 1 | 1.01 to 1.3 | 1.01 to 1.3 | ≤ 500 nM | –
C[C@H](Sc1nncn1C)c1cccc(NC(=O)c2cccc(S(C)(=O)=O)n2)c1 [Compound 80, (S)-N-(3-(1-((4-methyl-4H-1,2,4-triazol-3-yl)thio)ethyl)phenyl)-6-(methylsulfonyl)picolinamide] | 1 to 3 µM | < 1 | 1.01 to 2.5 | 1.01 to 2.5 | 3000 to 10000 nM | 1.01 to 1.3 | 1.01 to 1.3 | 1.01 to 1.3 | ≤ 10000 nM | –
C[C@H](Sc1nncn1C)c1cccc(NC(=O)c2cccc(C(C)(F)F)n2)c1 [Compound 81, (S)-6-(1,1-difluoroethyl)-N-(3-(1-((4-methyl-4H-1,2,4-triazol-3-yl)thio)ethyl)phenyl)picolinamide] | 0.1 to 0.3 µM | < 1 | < 1 | 2.51 to 5 | 301 to 1000 nM | 1.01 to 1.3 | 1.51 to 1.75 | > 1.76 | ≤ 500 nM | –
C[C@H](Sc1nncn1C)c1cccc(NC(=O)c2cc(C(C)(C)O)cc(C(F)(F)F)n2)c1 [Compound 85, 4-(1-hydroxy-1-methyl-ethyl)-N-[3-[(1S)-1-[(4-methyl-1,2,4-triazol-3-yl)sulfanyl]ethyl]phenyl]-6-(trifluoromethyl)pyridine-2-carboxamide] | 0.1 to 0.3 µM | < 1 | < 1 | 1.01 to 2.5 | 301 to 1000 nM | 1.01 to 1.3 | 1.01 to 1.3 | 1.01 to 1.3 | ≤ 500 nM | –
C[C@H](Sc1nncn1C)c1ccc(F)c(NC(=O)c2cccc(C(F)(F)F)n2)c1 [Compound 95a, (S)-N-(2-fluoro-5-(1-((4-methyl-4H-1,2,4-triazol-3-yl)thio)ethyl)phenyl)-6-(trifluoromethyl)picolinamide] | 0.301 to 1 µM | 1.01 to 2.5 | 1.01 to 2.5 | 2.51 to 5 | 1000 to 3000 nM | < 1 | 1.01 to 1.3 | 1.01 to 1.3 | ≤ 500 nM | –
C[C@H](Sc1nnc[nH]1)c1cccc(NC(=O)c2cc3ccccc3cn2)c1 [Compound 98, (S)-N-(3-(1-((4H-1,2,4-triazol-3-yl)thio)ethyl)phenyl)isoquinoline-3-carboxamide] | 0.301 to 1 µM | 1.01 to 2.5 | 1.01 to 2.5 | 1.01 to 2.5 | 3000 to 10000 nM | < 1 | < 1 | < 1 | ≤ 1000 nM | 1 to 3 µM
Cc1cc(C(=O)Nc2cc([C@H](C)Sc3nncn3C)ccn2)nc(C(F)(F)F)c1 [Compound 103, (S)-4-methyl-N-(4-(1-((4-methyl-4H-1,2,4-triazol-3-yl)thio)ethyl)pyridin-2-yl)-6-(trifluoromethyl)picolinamide] | 0.301 to 1 µM | 1.01 to 2.5 | 1.01 to 2.5 | 1.01 to 2.5 | 1000 to 3000 nM | < 1 | < 1 | 1.01 to 1.3 | ≤ 1000 nM | –
C[C@H](Sc1nncn1C)c1ccnc(NC(=O)c2cc(C3CC3)cc(C(F)(F)F)n2)c1 [Compound 104, (S)-4-cyclopropyl-N-(4-(1-((4-methyl-4H-1,2,4-triazol-3-yl)thio)ethyl)pyridin-2-yl)-6-(trifluoromethyl)picolinamide] | 0.301 to 1 µM | 1.01 to 2.5 | 1.01 to 2.5 | 1.01 to 2.5 | 1000 to 3000 nM | < 1 | < 1 | 1.01 to 1.3 | ≤ 1000 nM | –
C[C@H](Sc1nncn1C)c1ccnc(NC(=O)c2cc(Cl)cc(C(F)(F)F)n2)c1 [Compound 105, (S)-4-chloro-N-(4-(1-((4-methyl-4H-1,2,4-triazol-3-yl)thio)ethyl)pyridin-2-yl)-6-(trifluoromethyl)picolinamide] | 0.301 to 1 µM | 1.01 to 2.5 | 1.01 to 2.5 | < 1 | 1000 to 3000 nM | 1.01 to 1.3 | 1.01 to 1.3 | < 1 | ≤ 1000 nM | –
Cc1ccc(C(=O)Nc2cc([C@H](C)Sc3nncn3C)ccn2)nc1C1CC1 [Compound 113, (S)-6-cyclopropyl-5-methyl-N-(4-(1-((4-methyl-4H-1,2,4-triazol-3-yl)thio)ethyl)pyridin-2-yl)picolinamide] | 0.301 to 1 µM | 2.51 to 5 | 2.51 to 5 | 5 to 7.5 | 1000 to 3000 nM | < 1 | < 1 | 1.01 to 1.3 | ≤ 1000 nM | –
